Reference: patent US20240287046A1, “COMPOUNDS AND RADIOLIGANDS FOR TARGETING NEUROTENSIN RECEPTOR AND USES THEREOF” (Full-Life Technologies HK Limited, priority 2022, published 2024)

Legend:
[1] = test system: ASPC-1 tumor-bearing mice; assay: Biodistribution of radionuclide labeled complexes in ASPC-1 tumor-bearing mice; assay type: in vivo, BALB/c nude mice
Outline: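 Radiolabeled compound (~30-50 μCi, ~1.11-1.85 MBq, specific activity 30-250 μCi/nmol) was injected i.v. via tail vein into nude mice carrying 0.05-0.50 g subcutaneous NTSR-1-positive human tumors. At set times, tissues were collected, weighed and γ-counted; % ID and % ID/g were calculated.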

[2] = test system: ASPC-1 tumor-bearing mice; assay: SPECT/CT imaging of ^177Lu-labeled complexes; assay type: in vivo; details: over 72 hours
Protocol: ASPC-1 tumor-bearing mice were IV-injected with about 120 μCi of ^177Lu-labeled complexes, then anesthetized under 2% isoflurane/oxygen gas and placed on the scanner. SPECT/CT images were acquired in three bed positions for 30 min using a MILabs SPECT scanner. Whole-body SPECT images were acquired at 1 h, 4 h, 24 and 72 h after injecting the radiotracers.

[3] = test system: HT-29 tumor-bearing mice; assay: Biodistribution of radionuclide labeled complexes in HT-29 tumor-bearing mice; assay type: in vivo, BALB/c nude mice
Protocol: The BALB/c nude mice (Charles River, Beijing) were utilized to establish the xenografted model for biodistribution study. All animal care and experimental procedure were performed by following the animal protocols approved by the ethics committee of China Institute of Radiation Protection.
Briefly, each mouse was inoculated with approximately 4×10^6 ASPC-1 cells (human pancreatic cancer cell line) or HT-29 cells (human colorectal adenocarcinoma cell line) expressing human NTSR-1 by subcutaneous injection at rear flank. After inoculation, the xenografted tumors were allowed to grow for ˜2-4 weeks till the tumor weight reached to about 0.05 to 0.50 g (0.20 g in average).
Biodistribution studies were performed by administrating the radionuclide labeled test compound at a dose of ˜30-50 μCi (100 μL in 0.9% NaCl, ˜1.11-1.85 MBq, with specific activity 30-250 μCi/nmol) to each animal through tail vein injection.
At different time points after the administration, the mice treated with each compound were euthanized. The tissues and organs of the animals in each group were collected, excised, weighed, and analyzed in a PerkinElmer 2480 WIZARD2γ counter, and the percent injected dose (% ID) and % ID/g of each organ or tissue were calculated.

With `COc1cccc(OC)c1-c1cc(C(=O)NC2(C(=O)O)C3CC4CC(C3)CC2C4)nn1-c1ccc(NC(=O)CCCN(C)CCCN(C)C(=O)CN2CCN(CC(=O)[O-])CCN(CC(=O)[O-])CCN(CC(=O)[O-])CC2)cc1C(C)C.[177Lu+3]` (centres unmarked) [^177Lu-I-5] the “tumor AUC over 72 hours compared to ^177Lu—C2” value [1] was “significantly higher tumor AUC”, the “% ID/g (4 h) Blood” value ([1]; Blood, 4 h) was 15.51 ± 0.77 % ID/g and the “% ID/g (24 h) Blood” value ([1]; Blood, 24 h) was 0.09 ± 0.01 % ID/g. The “% ID/g (72 h) Blood” value ([1]; Blood, 72 h) was 0.02 ± 0 % ID/g, the “% ID/g (4 h) Femur” value ([1]; Femur, 4 h) was 2.21 ± 0.63 % ID/g and the “% ID/g (24 h) Femur” value ([1]; Femur, 24 h) was 0.38 ± 0.23 % ID/g. The “% ID/g (72 h) Femur” value ([1]; Femur, 72 h) was 0.17 ± 0.09 % ID/g, the “% ID/g (4 h) Heart” value ([1]; Heart, 4 h) was 2.82 ± 1.88 % ID/g and the “% ID/g (24 h) Heart” value ([1]; Heart, 24 h) was 2.18 ± 2.71 % ID/g. For the same compound, the “% ID/g (72 h) Heart” value ([1]; Heart, 72 h) was 0.15 ± 0.13 % ID/g, the “% ID/g (4 h) Intestine” value ([1]; Intestine, 4 h) was 1.81 ± 0.87 % ID/g and the “% ID/g (24 h) Intestine” value ([1]; Intestine, 24 h) was 0.82 ± 0.31 % ID/g. The “% ID/g (72 h) Intestine” value ([1]; Intestine, 72 h) was 0.51 ± 0.04 % ID/g, the “% ID/g (4 h) Kidney” value ([1]; Kidney, 4 h) was 4.57 ± 2.28 % ID/g and the “% ID/g (24 h) Kidney” value ([1]; Kidney, 24 h) was 1.37 ± 0.17 % ID/g. The “% ID/g (72 h) Kidney” value ([1]; Kidney, 72 h) was 1.29 ± 0.49 % ID/g, the “% ID/g (4 h) Liver” value ([1]; Liver, 4 h) was 3.87 ± 2.36 % ID/g and the “% ID/g (24 h) Liver” value ([1]; Liver, 24 h) was 1.27 ± 0.29 % ID/g. For the same compound, the “% ID/g (72 h) Liver” value ([1]; Liver, 72 h) was 0.96 ± 0.07 % ID/g, the “% ID/g (4 h) Lung” value ([1]; Lung, 4 h) was 1.841 ± 0.07 % ID/g and the “% ID/g (24 h) Lung” value ([1]; Lung, 24 h) was 0.33 ± 0.06 % ID/g. The “% ID/g (72 h) Lung” value ([1]; Lung, 72 h) was 0.23 ± 0.07 % ID/g, the “% ID/g (4 h) Muscle” value ([1]; Muscle, 4 h) was 1.29 ± 0.37 % ID/g and the “% ID/g (24 h) Muscle” value ([1]; Muscle, 24 h) was 0.17 ± 0.08 % ID/g. The “% ID/g (72 h) Muscle” value ([1]; Muscle, 72 h) was 0.05 ± 0.01 % ID/g, the “% ID/g (4 h) Pancreas” value ([1]; Pancreas, 4 h) was 1.57 ± 0.5 % ID/g and the “% ID/g (24 h) Pancreas” value ([1]; Pancreas, 24 h) was 0.3 ± 0.24 % ID/g. For the same compound, the “% ID/g (72 h) Pancreas” value ([1]; Pancreas, 72 h) was 0.1 ± 0.04 % ID/g, the “% ID/g (4 h) Spleen” value ([1]; Spleen, 4 h) was 2.39 ± 1.4 % ID/g and the “% ID/g (24 h) Spleen” value ([1]; Spleen, 24 h) was 0.63 ± 0.05 % ID/g. The “% ID/g (72 h) Spleen” value ([1]; Spleen, 72 h) was 0.34 ± 0.04 % ID/g, the “% ID/g (4 h) Stomach” value ([1]; Stomach, 4 h) was 3.52 ± 0.4 % ID/g and the “% ID/g (24 h) Stomach” value ([1]; Stomach, 24 h) was 0.28 ± 0.2 % ID/g. The “% ID/g (72 h) Stomach” value ([1]; Stomach, 72 h) was 0.15 ± 0.05 % ID/g, the “% ID/g (4 h) Tumor” value ([1]; Tumor, 4 h) was 27.56 ± 12.51 % ID/g and the “% ID/g (24 h) Tumor” value ([1]; Tumor, 24 h) was 36.67 ± 18.25 % ID/g. For the same compound, the “% ID/g (72 h) Tumor” value ([1]; Tumor, 72 h) was 12.83 ± 4.23 % ID/g, the “ratio of tumor AUC verse normal organ AUC” value ([1]; compared to ^177Lu—C2) was “significantly improved” and the “clearance from other organs or tissues (SPECT/CT)” value [2] was “rapid clearance”. The “retention in tumors (SPECT/CT)” value [2] was “sustained retention in tumors”, the “% ID/g (1 h) Blood” value ([3]; Blood, 1 h) was 20.4 ± 1.06 % ID/g and the “% ID/g (4 h) Blood” value ([3]; Blood, 4 h) was 9.07 ± 1.42 % ID/g. For the same compound, the “% ID/g (24 h) Blood” value ([3]; Blood, 24 h) was 0.07 ± 0.02 % ID/g, the “% ID/g (72 h) Blood” value ([3]; Blood, 72 h) was 0.09 ± 0.07 % ID/g and the “% ID/g (120 h) Blood” value ([3]; Blood, 120 h) was 0.01 ± 0 % ID/g. For the same compound, the “% ID/g (1 h) Femur” value ([3]; Femur, 1 h) was 1.84 ± 1.19 % ID/g, the “% ID/g (4 h) Femur” value ([3]; Femur, 4 h) was 0.99 ± 0.18 % ID/g and the “% ID/g (24 h) Femur” value ([3]; Femur, 24 h) was 0.29 ± 0.1 % ID/g. For the same compound, the “% ID/g (72 h) Femur” value ([3]; Femur, 72 h) was 0.73 ± 0.82 % ID/g and the “% ID/g (120 h) Femur” value ([3]; Femur, 120 h) was 0.13 ± 0.05 % ID/g.
